Data published in the supplement of paper PMC10307832.

Key:
Experiment in all cases: relative viability (nuclei count vs DMSO), 5 days (fraction); higher = more cells survive
Carboplatin + Tozasertib = compound: C1CC(C1)(C(=O)O)C(=O)O.[NH2-].[NH2-].[Pt+2] [Carboplatin] + Cc1cc(Nc2cc(N3CCN(C)CC3)nc(Sc3ccc(NC(=O)C4CC4)cc3)n2)n[nH]1 [Tozasertib] (partner 0.1 µM)
Method in brief: (§1)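 Lung cancer cell lines in 1536-well plates were dosed by pin tool the day after seeding, either with one drug alone or with a fixed anchor-drug dose plus five library-drug doses (not always all listed) in √10 steps. After 5 days, cells were fixed and their nuclei stained in one step (final 0.05% Triton X-100, 1% formaldehyde, 1 ug/ml Hoechst), then counted on 4× images. Relative viability is the nuclei count in treated wells divided by that in vehicle wells. Values are medians of duplicate plates.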

Carboplatin + Foretinib = compound: C1CC(C1)(C(=O)O)C(=O)O.[NH2-].[NH2-].[Pt+2] [Carboplatin] + COc1cc2c(Oc3ccc(NC(=O)C4(C(=O)Nc5ccc(F)cc5)CC4)cc3F)ccnc2cc1OCCCN1CCOCC1 [Foretinib] (partner 0.25 µM)
Method in brief: as §1

MLN4924 + Foretinib = compound: NS(=O)(=O)OC[C@@H]1C[C@@H](n2ccc3c(N[C@H]4CCc5ccccc54)ncnc32)C[C@@H]1O [MLN4924] + COc1cc2c(Oc3ccc(NC(=O)C4(C(=O)Nc5ccc(F)cc5)CC4)cc3F)ccnc2cc1OCCCN1CCOCC1 [Foretinib] (partner 0.25 µM)
Method in brief: as §1

Carboplatin + Trametinib = compound: C1CC(C1)(C(=O)O)C(=O)O.[NH2-].[NH2-].[Pt+2] [Carboplatin] + CC(=O)Nc1cccc(-n2c(=O)n(C3CC3)c(=O)c3c(Nc4ccc(I)cc4F)n(C)c(=O)c(C)c32)c1 [Trametinib] (partner 0.02 µM)
Method in brief: as §1

Cell Line	relative viability (Carboplatin + Tozasertib; first compound 0.08 µM)	relative viability (Carboplatin + Tozasertib; first compound 0.253 µM)	relative viability (Carboplatin + Tozasertib; first compound 0.8 µM)	relative viability (Carboplatin + Tozasertib; first compound 2.53 µM)	relative viability (Carboplatin + Tozasertib; first compound 8 µM)	relative viability (Carboplatin + Foretinib; first compound 0.08 µM)	relative viability (Carboplatin + Foretinib; first compound 0.253 µM)	relative viability (Carboplatin + Foretinib; first compound 0.8 µM)	relative viability (Carboplatin + Foretinib; first compound 2.53 µM)	relative viability (Carboplatin + Foretinib; first compound 8 µM)	relative viability (MLN4924 + Foretinib; first compound 0.04 µM)	relative viability (MLN4924 + Foretinib; first compound 0.1265 µM)	relative viability (MLN4924 + Foretinib; first compound 0.4 µM)	relative viability (MLN4924 + Foretinib; first compound 1.265 µM)	relative viability (MLN4924 + Foretinib; first compound 4 µM)	relative viability (Carboplatin + Trametinib; first compound 0.08 µM)	relative viability (Carboplatin + Trametinib; first compound 0.253 µM)	relative viability (Carboplatin + Trametinib; first compound 0.8 µM)	relative viability (Carboplatin + Trametinib; first compound 2.53 µM)	relative viability (Carboplatin + Trametinib; first compound 8 µM)
ABC-1	0.208	0.201	0.164	0.186	0.207	1.28	1.09	1.1	0.769	0.398	1.07	1.07	0.301	0.189	0.248	–	–	–	–	–
LC-2-ad	0.482	0.433	0.496	0.372	0.374	1.03	1.04	0.994	0.874	0.679	0.845	0.793	0.592	0.212	0.186	0.91	0.934	0.923	0.882	0.8
NCI-H460	0.54	0.462	0.387	0.237	0.168	0.98	1.03	0.968	0.716	0.322	1.01	1.09	0.855	0.297	0.0485	0.161	0.139	0.155	0.0949	0.0458
NCI-H1915	0.494	0.455	0.411	0.364	0.331	1.12	1.13	1.04	1.05	0.81	1.07	0.929	0.906	0.314	0.232	0.325	0.29	0.296	0.288	0.257
NCI-H1299	–	–	–	–	–	1.13	1.09	1.04	1.05	0.996	1.01	0.82	0.499	0.33	0.176	–	–	–	–	–
HOP-62	0.377	0.387	0.378	0.378	0.368	0.984	1	1.07	1.04	0.994	0.669	0.312	0.246	0.0894	0.0942	0.393	0.359	0.385	0.393	0.363
EPLC-272H	0.314	0.387	0.181	0.289	0.291	0.785	0.852	0.727	0.611	0.602	0.582	0.216	0.0552	0.0953	0.109	0.302	0.317	0.334	0.273	0.303
NCI-H647	0.402	0.488	0.272	0.239	0.229	1.15	1.24	1.13	1.17	0.84	0.818	0.848	0.188	0.0561	0.0661	0.533	0.483	0.413	0.469	0.457
NCI-H1792	–	–	–	–	–	–	–	–	–	–	–	–	–	–	–	0.514	0.395	0.354	0.361	0.231
NCI-H2009	0.848	0.694	0.76	0.613	0.45	1.25	1.18	1.12	1	0.767	1.02	0.494	0.344	0.193	0.104	0.346	0.295	0.243	0.249	0.238
NCI-H2405	0.786	0.779	0.688	0.682	0.768	1.15	1.09	0.983	0.958	0.952	1.08	0.928	0.76	0.319	0.293	0.752	0.661	0.635	0.633	0.606
SK-MES-1	0.812	0.938	0.925	0.922	0.843	1.24	0.95	0.906	1.06	0.818	1.11	1.11	0.646	0.213	0.239	0.645	0.469	0.524	0.556	0.565
NCI-H1563	–	–	–	–	–	0.931	0.954	0.92	0.929	0.888	1.16	1.21	0.744	0.535	0.55	–	–	–	–	–
NCI-H2170	0.732	0.687	0.642	0.71	0.535	0.994	0.527	1.02	0.942	0.468	1.02	0.277	0.28	0.199	0.227	0.911	1.02	0.966	0.814	0.717
NCI-H1648	0.708	0.421	0.319	–	0.456	–	–	–	–	–	–	–	–	–	–	0.527	0.567	0.45	0.382	0.473
IA-LM	–	–	–	–	–	1.25	1.06	1.21	1.19	1	0.765	0.329	0.135	0.0463	0.0394	–	–	–	–	–
Calu-6	–	–	–	–	–	0.911	0.919	0.793	0.789	0.415	0.699	0.322	0.209	0.0838	0.0789	–	–	–	–	–
NCI-H1703	–	–	–	–	–	0.446	0.397	0.34	0.403	0.37	0.267	0.226	0.19	0.173	0.248	–	–	–	–	–
EBC-1	–	–	–	–	–	0.0979	0.108	0.108	0.0821	0.101	0.109	0.15	0.147	0.082	0.0997	–	–	–	–	–
NCI-H522	0.63	0.604	0.547	0.525	0.528	–	–	–	–	–	–	–	–	–	–	0.724	0.876	0.632	0.781	0.762
A549	–	–	–	–	–	1.03	0.991	0.888	0.768	0.741	0.972	0.8	0.508	0.0828	0.0301	–	–	–	–	–
